Data on 18 compounds can be found in patent publication US20250019371A1, “SMALL-MOLECULAR INHIBITORS FOR THE BETA-CATENIN/ B-CELL LYMPHOMA 9 PROTEIN-PROTEIN INTERACTION” (H. LEE MOFFITT CANCER CENTER AND RESEARCH INSTITUTE, INC., priority 2021, published 2025).

Broadly, the IC50 is the concentration that inhibits the measured activity by half. Usually Ki stands for a measure of affinity in units of concentration, obtained from inhibition or displacement.

The target of one assay is T1, β-catenin/BCL9 PPI (Homo sapiens, UniProt P35222).
T1 construct: Full-length β-catenin (residues 1-781); host or cells: E. coli BL21 DE3
T1 sequence (P35222 1-781): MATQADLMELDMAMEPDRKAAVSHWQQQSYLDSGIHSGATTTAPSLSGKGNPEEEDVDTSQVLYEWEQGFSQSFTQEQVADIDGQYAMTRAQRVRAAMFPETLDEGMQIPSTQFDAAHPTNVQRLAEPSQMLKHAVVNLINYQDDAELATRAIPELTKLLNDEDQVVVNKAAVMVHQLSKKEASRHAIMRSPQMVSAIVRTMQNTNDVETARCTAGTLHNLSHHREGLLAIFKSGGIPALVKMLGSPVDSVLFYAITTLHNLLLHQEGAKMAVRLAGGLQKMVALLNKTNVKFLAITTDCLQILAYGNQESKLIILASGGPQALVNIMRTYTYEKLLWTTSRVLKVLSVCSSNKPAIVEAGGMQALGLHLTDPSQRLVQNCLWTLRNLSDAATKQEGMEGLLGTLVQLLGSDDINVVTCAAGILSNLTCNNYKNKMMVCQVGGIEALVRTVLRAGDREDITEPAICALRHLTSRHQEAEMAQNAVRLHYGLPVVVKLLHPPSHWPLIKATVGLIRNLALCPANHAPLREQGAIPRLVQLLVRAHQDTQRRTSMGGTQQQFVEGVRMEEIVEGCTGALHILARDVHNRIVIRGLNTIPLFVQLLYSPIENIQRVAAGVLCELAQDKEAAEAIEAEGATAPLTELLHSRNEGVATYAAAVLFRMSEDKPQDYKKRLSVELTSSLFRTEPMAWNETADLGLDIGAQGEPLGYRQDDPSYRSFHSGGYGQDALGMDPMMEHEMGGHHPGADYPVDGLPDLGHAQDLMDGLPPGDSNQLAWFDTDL
As to the kind of experiment: AlphaScreen competitive inhibition assay of β-catenin/BCL9 PPI. It counts as binding. The following applies: for Ki: read-out: Ki; for AlphaScreen inhibitory activity in words: SAR comparison; for potency relative to compound 12: AlphaScreen Ki compared with 12. The method, then:
AlphaScreen Assays of β-Catenin and BCL9 Interaction. Experiments were performed in white opaque 384-well plates from PerkinElmer (Waltham, MA), and the samples were read on a Biotek Synergy 2 plate reader (Winooski, VT) with excitation at 680 nm and emission at 570 nm. The standard AlphaScreen protocol was used with a sensitivity setting of 200. All dilutions were made in 1x assay buffer containing 25 mM Hepes (pH 7.4), 100 mM NaCl, 0.01% Triton X-100 and 0.1% BSA to minimize nonspecific interactions.
For the β-catenin/BCL9 assay, 5 nM biotinylated BCL9, and 50 nM His6-tagged 8-catenin were incubated in assay buffer for 30 min. Different concentrations of the tested inhibitor were added and incubated in 20 μL assay buffer for another 1 h. All of the assay plates were covered and gently mixed on an orbital shaker. Donor and acceptor beads were then added to the plates to a final concentration of 10 μg/mL in 25 μL assay buffer. The mixture was incubated for 1 h before detection. The IC50 value was determined by nonlinear least-square analysis of GraphPad Prism 8.0. […] All of the experiments were performed in triplicate and carried out in the presence of 1% DMSO for small-molecule inhibitors. Each compound was assayed at least by three independent experiments. The results were expressed as mean±standard deviation.
On the technique in general: In Alpha technology, singlet oxygen from a donor bead excites a nearby acceptor bead.

For assay [1] the following is noted: cell-based experiments, earlier work, cited from earlier work.
Where [2] appears, read: first Table 3, AlphaScreen, inhibitors 31-35.
Setting [3] is: Table 1, AlphaScreen, inhibitors 16-26.
[4] abbreviates: Table 1, AlphaScreen, inhibitors 16-26, Ki derived from IC50.
[5] abbreviates: Table 2, AlphaScreen, inhibitors 27-30 (R- and S-isomers), preliminary.

Like-named read-outs stand apart in the source and are kept apart here. Some results are limits rather than exact numbers.

On to `COc1ccc(S(=O)(=O)NC(=O)C(C)(C)Oc2cccc(N3CCC[C@H](C(=O)N(Cc4ccc(-c5cccs5)cc4)C4CC4)C3)c2)cc1` [Compound 34], for which, at β-catenin/BCL9 PPI (setting [2]), the IC50 was at most 30 µM and the Ki is at most 30 µM.

In the case of `CC(C)(Oc1cccc(N2CCC[C@H](C(=O)N(Cc3ccc(-c4cccs4)cc3)C3CC3)C2)c1)C(=O)NS(=O)(=O)C1CC1` [Compound 33], on β-catenin/BCL9 PPI (setting [2]), the IC50 is at most 30 µM and the Ki is at most 30 µM.

On to `CC(C)(Oc1cccc(N2CCCC(C(=O)N(Cc3ccc(-c4cccs4)cc3)C3CC3)C2)c1)C(=O)NS(=O)(=O)C(F)(F)F` (stereo not drawn) [Compound 31], for which, on β-catenin/BCL9 PPI (setting [2]), the IC50 is around 200 µM and the Ki was around 168 µM.

As to `CC(C)(Oc1cccc(N2CCC[C@H](C(=O)N(Cc3ccc(-c4cccs4)cc3)C3CC3)C2)c1)C(=O)NS(=O)(=O)c1cccc(C#N)c1` [Compound 35], on β-catenin/BCL9 PPI (setting [2]), the IC50 is at most 10 µM and the Ki is at most 10 µM.

On to `COc1ccc(S(=O)(=O)NC(=O)C(C)(C)Oc2cccc(N3CCCC(C(=O)N(Cc4ccc(-c5cccs5)cc4)C4CC4)C3)c2)cc1` (stereo not drawn) [Compound 23, N-Cyclopropyl-1-(3-((1-((4-methoxyphenyl)sulfonamido)-2-methyl-1-oxopropan-2-yl)oxy)phenyl)-N-(4-(thiophen-2-yl)benzyl) piperidine-3-carboxamide], for which, at β-catenin/BCL9 PPI (setting [3]), the IC50 was at most 10 µM. The inhibition constant (Ki) at β-catenin/BCL9 PPI (setting [4]) was at most 5 µM.

In the case of `COC(=O)C(C)(C)Oc1cccc(N2CCCC(C(=O)N(Cc3ccc(-c4cccs4)cc3)C3CC3)C2)c1` (stereo not drawn) [Compound 16, Methyl 2-(3-(3-(cyclopropyl(4-(thiophen-2-yl)benzyl)carbamoyl)piperidin-1-yl)phenoxy)-2-methylpropanoate], the “AlphaScreen inhibitory activity in words” value on β-catenin/BCL9 PPI is “significant potency loss”. At β-catenin/BCL9 PPI (setting [3]), the IC50 was above 100 µM. Moreover, the Ki at β-catenin/BCL9 PPI (setting [4]) was above 90 µM.

Regarding `CC(C)(Oc1cccc(N2CCCC(C(=O)N(Cc3ccc(-c4cccs4)cc3)C3CC3)C2)c1)C(=O)NS(=O)(=O)C1CC1` (stereo not drawn) [Compound 19, 1-(3-((1-(Cyclopropanesulfonamido)-2-methyl-1-oxopropan-2-yl)oxy)phenyl)-N-cyclopropyl-N-(4-(thiophen-2-yl)benzyl) piperidine-3-carboxamide], on β-catenin/BCL9 PPI, the “AlphaScreen inhibitory activity in words” value was “improved activities”. Besides, the IC50 at β-catenin/BCL9 PPI (setting [3]) is at most 30 µM. For the same compound, the Ki on β-catenin/BCL9 PPI (setting [4]) is at most 30 µM.

`CC(C)S(=O)(=O)NC(=O)C(C)(C)Oc1cccc(N2CCCC(C(=O)N(Cc3ccc(-c4cccs4)cc3)C3CC3)C2)c1` (stereo not drawn) [Compound 20, N-Cyclopropyl-1-(3-((2-methyl-1-((1-methylethyl)sulfonamido)-1-oxopropan-2-yl)oxy)phenyl)-N-(4-(thiophen-2-yl)benzyl) piperidine-3-carboxamide]: the “AlphaScreen inhibitory activity in words” value at β-catenin/BCL9 PPI is given as “improved activities”. The 50% inhibitory concentration (IC50) on β-catenin/BCL9 PPI (setting [3]) is at most 30 µM. Also, the Ki on β-catenin/BCL9 PPI (setting [4]) is at most 30 µM.

Consider `CC(C)(Oc1cccc(N2CCC[C@@H](C(=O)N(Cc3ccc(-c4cccs4)cc3)C3CC3)C2)c1)C(=O)NS(=O)(=O)C1CC1` [Compound 32], for which, at β-catenin/BCL9 PPI (setting [2]), the IC50 was at most 30 µM and the Ki was at most 30 µM.

On to `CC(C)(Oc1cccc(N2CCCC(C(=O)N(Cc3ccc(-c4cccs4)cc3)C3CC3)C2)c1)C(=O)NS(=O)(=O)c1cccc(O)c1` (stereo not drawn) [Compound 24, N-Cyclopropyl-1-(3-((1-((3-hydroxyphenyl)sulfonamido)-2-methyl-1-oxopropan-2-yl)oxy)phenyl)-N-(4-(thiophen-2-yl)benzyl) piperidine-3-carboxamide], for which the IC50 on β-catenin/BCL9 PPI (setting [3]) is at most 10 µM. Also, the Ki at β-catenin/BCL9 PPI (setting [4]) is at most 10 µM.

For the compound `CC(C)(Oc1cccc(N2CCCC(C(=O)N(Cc3ccc(-c4cccs4)cc3)C3CC3)C2)c1)C(=O)NS(=O)(=O)c1cccc(C#N)c1` (stereo not drawn) [Compound 25, 1-(3-((1-((3-Cyanophenyl)sulfonamido)-2-methyl-1-oxopropan-2-yl)oxy)phenyl)-N-cyclopropyl-N-(4-(thiophen-2-yl)benzyl) piperidine-3-carboxamide], the IC50 on β-catenin/BCL9 PPI (setting [3]) is at most 10 µM. In addition, the Ki at β-catenin/BCL9 PPI (setting [4]) was at most 10 µM.

Turning to `COc1cccc(S(=O)(=O)NC(=O)C(C)(C)Oc2cccc(N3CCC[C@@H](C(=O)N(Cc4ccc(-c5cccs5)cc4)C4CC4)C3)c2)c1` [Compound 27, (R)—N-Cyclopropyl-1-(3-((1-((3-methoxyphenyl)sulfonamido)-2-methyl-1-oxopropan-2-yl)oxy)phenyl)-N-(4-(thiophen-2-yl)benzyl) piperidine-3-carboxamide], at β-catenin/BCL9 PPI (setting [5]), the IC50 is at most 10 µM and the Ki is at most 5 µM.

As to `COc1cccc(S(=O)(=O)NC(=O)C(C)(C)Oc2cccc(N3CCCC(C(=O)N(Cc4ccc(-c5cccs5)cc4)C4CC4)C3)c2)c1` (stereo not drawn) [Compound 22, N-Cyclopropyl-1-(3-((1-((3-methoxyphenyl)sulfonamido)-2-methyl-1-oxopropan-2-yl)oxy)phenyl)-N-(4-(thiophen-2-yl)benzyl) piperidine-3-carboxamide], the 50% inhibitory concentration (IC50) at β-catenin/BCL9 PPI (setting [3]) was at most 10 µM. In addition, on β-catenin/BCL9 PPI (setting [4]), the Ki was at most 5 µM.

Turning to `CC(C)(Oc1cccc(N2CCCC(C(=O)N(Cc3ccc(-c4cccs4)cc3)C3CC3)C2)c1)C(=O)NS(=O)(=O)c1ccccc1` (stereo not drawn) [Compound 21, N-Cyclopropyl-1-(3-((2-methyl-1-oxo-1-(phenylsulfonamido)propan-2-yl)oxy)phenyl)-N-(4-(thiophen-2-yl)benzyl) piperidine-3-carboxamide], at β-catenin/BCL9 PPI, the “potency relative to compound 12” value is on record as “two-fold more potent than 12” and the “AlphaScreen inhibitory activity in words” value is “improved activities”. Moreover, the half-maximal inhibitory concentration (IC50) at β-catenin/BCL9 PPI (setting [3]) was at most 10 µM. Moreover, at β-catenin/BCL9 PPI (setting [4]), the Ki was at most 10 µM.

Regarding `CC(C)c1ccc(COC(=O)N2CCC[C@@H](c3cccc(OC(C)(C)C(=O)O)c3)C2)cc1` [CP868388], the cellular activity result in assay [1] is “inactive in cell-based experiments”; in assay [1] (listed as 1), “did not show any cellular activity”.

Consider `CC(C)(Oc1cccc(N2CCC[C@@H](C(=O)N(Cc3ccc(-c4cccs4)cc3)C3CC3)C2)c1)C(=O)NS(=O)(=O)c1ccc(C#N)cc1` [Compound 29, (R)-1-(3-((1-((4-Cyanophenyl)sulfonamido)-2-methyl-1-oxopropan-2-yl)oxy)phenyl)-N-cyclopropyl-N-(4-(thiophen-2-yl)benzyl) piperidine-3-carboxamide], for which, on β-catenin/BCL9 PPI (setting [5]), the IC50 was at most 5 µM and the Ki was at most 5 µM.

For the compound `CC(C)(Oc1cccc(N2CCCC(C(=O)N(Cc3ccc(-c4cccs4)cc3)C3CC3)C2)c1)C(=O)NS(C)(=O)=O` (stereo not drawn) [Compound 18, N-Cyclopropyl-1-(3-((2-methyl-1-(methylsulfonamido)-1-oxopropan-2-yl)oxy)phenyl)-N-(4-(thiophen-2-yl)benzyl) piperidine-3-carboxamide], on β-catenin/BCL9 PPI, the “potency relative to compound 12” value is given as “two-fold less potent than 12”. Also, the IC50 on β-catenin/BCL9 PPI (setting [3]) was at most 30 µM. In addition, the Ki on β-catenin/BCL9 PPI (setting [4]) is at most 30 µM.

Regarding `CC(C)(Oc1cccc(N2CCCC(C(=O)N(Cc3ccc(-c4cccs4)cc3)C3CC3)C2)c1)C(=O)NS(=O)(=O)c1ccc(C#N)cc1` (stereo not drawn) [Compound 26, 1-(3-((1-((4-Cyanophenyl)sulfonamido)-2-methyl-1-oxopropan-2-yl)oxy)phenyl)-N-cyclopropyl-N-(4-(thiophen-2-yl)benzyl) piperidine-3-carboxamide], the IC50 at β-catenin/BCL9 PPI (setting [3]) was at most 5 µM. Also, the Ki at β-catenin/BCL9 PPI (setting [4]) is at most 5 µM.
